According to publication PMC4624405 (Chemistry & biology, 2015):
Read-outs that look alike come from different tables or passages of the source.

Experiments:
[1] = target: T1, sterol C24-methyltransferase (TbSMT) (Trypanosoma brucei, UniProt Q4FKJ2); type: biochemical
T1 sequence (Q4FKJ2 1-359): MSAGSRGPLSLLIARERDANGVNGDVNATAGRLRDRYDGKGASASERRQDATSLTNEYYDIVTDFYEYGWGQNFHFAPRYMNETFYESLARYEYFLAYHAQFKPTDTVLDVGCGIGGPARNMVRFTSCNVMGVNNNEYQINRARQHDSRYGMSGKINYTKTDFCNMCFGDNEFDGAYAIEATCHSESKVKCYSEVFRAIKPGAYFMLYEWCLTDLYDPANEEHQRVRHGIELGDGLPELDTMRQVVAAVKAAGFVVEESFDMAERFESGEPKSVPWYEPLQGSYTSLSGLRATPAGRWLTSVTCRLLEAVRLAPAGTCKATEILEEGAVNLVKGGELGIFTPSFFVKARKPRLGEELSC

[2] = target: T1, sterol C24-methyltransferase (TbSMT); test: recombinant enzyme activity assay, Lineweaver-Burk inhibition; type: biochemical

| SMILES | Ki [1] | Ki [2] |
| --- | --- | --- |
| CC(=CCC[C@@H](C)[C@H]1CC[C@H]2C3=CC=C4C[C@@H](O)CC[C@]4(C)[C@H]3CC[C@]12C)CF [26FCT, 26-fluorocholesta-5,7,24-trienol] | 75 µM |  |
| CC(=CCC[C@@H](C)[C@H]1CC[C@@]2(C)C3=C(CC[C@]12C)[C@@]1(C)CC[C@H](O)C(C)(C)[C@@H]1CC3)CF [26FL, 26-fluorolanosterol] |  | 85 µM |
